Measurements reported in patent US20100285959A1, “HERBICIDAL MIXTURES” (priority 2006, published 2010).

What was measured:
[1] = test system: common lambsquarters (CHEAL); test: Test 1 field trial, preemergence; format: in vivo, Chenopodium album
Description: (§1) Corn seeds (hybrid ‘Pioneer 34N43’) were planted in mid spring season, 3.8 cm deep in a silt loam soil having 4.6% organic matter and a pH of 6. Plots were 10.7 m long by 1.5 m wide with rows spaced 76 cm apart. Seeds were spaced 18 cm apart within the rows. The field was managed using conventional tillage practices. […] Results are summarized in Table 1 and are the means of the three replicates. […] Colby's Equation (Colby, S. R. “Calculating Synergistic and Antagonistic Responses of Herbicide Combinations,” Weeds, 15(1), pp 20-22 (1967)) calculates the expected additive effect of herbicidal mixtures, and for two active ingredients is of the form:
(§2) Pa+b=Pa+Pb−(PaPb/100) • wherein Pa+b is the percentage effect of the mixture expected from additive contribution of the individual components, • Pa is the observed percentage effect of the first active ingredient at the same use rate as in the mixture, and • Pb is the observed percentage effect of the second active ingredient at the same use rate as in the mixture.

[2] = test system: yellow foxtail (SETLU); test: Test 1 field trial, preemergence; format: in vivo, Setaria glauca; details: 56 DAA
Description: as §1, §2

[3] = test system: field pennycress (THLAR); test: Test 1 field trial, preemergence; format: in vivo, Thlaspi arvense; details: 28 DAA
Description: as §1, §2

[4] = test system: corn (ZEAMD); test: Test 5 field trial, postemergence; format: in vivo, Zea mays ssp. indentata; details: hybrid Pioneer 38H69, corn (Zea mays ssp. indentata), in vivo
Description: (§3) Corn seeds (hybrid ‘Pioneer 38H69’) were planted in mid spring season, 5.1 cm deep in a silty clay loam soil having 3% organic matter and a pH of 6.5. Plots were 9.1 m long by 3.0 m wide with rows spaced 76 cm apart. The field was managed using conventional tillage practices. […] All treatments included a surfactant except glufosinate treatments, both alone and in combination. […] Results are summarized in Table 5 and are the means of the three replicates.

[5] = test system: common ragweed (AMBEL); test: Test 5 field trial, postemergence; format: in vivo, Ambrosia artemisiifolia
Description: as §3

[6] = test system: large crabgrass (DIGSA); test: Test 5 field trial, postemergence; format: in vivo, Digitaria sanguinalis
Description: as §3

[7] = test system: giant foxtail (SETFA); test: Test 5 field trial, postemergence; format: in vivo, Setaria faberi
Description: as §3

[8] = test system: field pennycress (THLAR); test: Test 5 field trial, postemergence; format: in vivo, Thlaspi arvense
Description: as §3

[9] = test system: velvetleaf (ABUTH); test: Test 6 field trial, postemergence; format: in vivo, Abutilon theophrasti
Description: (§4) Corn seeds (hybrid ‘Pioneer 35Y62’) were planted in mid spring season, 3.8 cm deep in a silt loam soil having 4% organic matter and a pH of 5.8. Plots were 10.7 m long by 1.5 m wide with rows spaced 76 cm apart. Seeds were spaced 18 cm apart within the rows. The field was managed using conventional tillage practices. […] All treatments included a surfactant except glufosinate treatments, both alone and in combination. […] Results are summarized in Table 6 and are the means of the three replicates.

[10] = test system: common lambsquarters (CHEAL); test: Test 6 field trial, postemergence; format: in vivo, Chenopodium album
Description: as §4

[11] = test system: common blackjack (BIDPI); test: Test 11 field trial, preemergence; format: in vivo, Bidens pilosa; parameters: scale not given here; details: alone or + atrazine 1500 or metolachlor 2500
Description: (§5) Corn seeds (hybrid ‘Pioneer 3041’) were planted in mid spring season, 5 cm deep in a clay soil having 2.6% organic matter and a pH of 5.6. Plots were 8 m long by 1.5 m wide with rows spaced 80 cm apart. Seeds were spaced 15 cm apart within the rows. The field was managed using conventional tillage practices. […] Treatments consisted of Compound 2 or
(§6) Goosegrass was not evaluated 16 or 91 days after application.

[12] = test system: alexandergrass (BRAPL); test: Test 11 field trial, preemergence; format: in vivo, Brachiaria plantaginea; parameters: scale not given here; details: alone or + atrazine 1500 or metolachlor 2500
Description: as §5, §6

[13] = test system: Brazilian crabgrass (DIGHO); test: Test 11 field trial, preemergence; format: in vivo, Digitaria horizontalis; parameters: scale not given here; details: alone or + atrazine 1500 or metolachlor 2500
Description: as §5, §6

[14] = test system: goosegrass (ELEIN); test: Test 11 field trial, preemergence; format: in vivo, Eleusine indica
Description: as §5, §6

[15] = test system: arrowleaf sida (SIDRH); test: Test 11 field trial, preemergence; format: in vivo, Sida rhombifolia
Description: as §5, §6

[16] = g a.i./ha: Cpd 2 50, S-Metolachlor 1870
[17] = g a.i./ha: Cpd 2 100, Atrazine 1680, S-Metolachlor 1870
[18] = g a.i./ha: Cpd 2 150, S-Metolachlor 1870
[19] = 16 DAA, Cpd 2 30 g a.i./ha alone or with glufosinate 470 or glyphosate 1120
[20] = 16 DAA, Cpd 2 60 g a.i./ha alone or with atrazine 1120, glufosinate 470 or glyphosate 1120
[21] = 31 DAA, Cpd 2 30 g a.i./ha alone or with glufosinate 470 or glyphosate 1120
[22] = 31 DAA, Cpd 2 60 g a.i./ha alone or with atrazine 1120, glufosinate 470 or glyphosate 1120
[23] = 16 DAA, Cpd 2/Cpd 1 at 62 g a.i./ha
[24] = 16 DAA, Cpd 2/Cpd 1 at 125 g a.i./ha
[25] = 30 DAA, Cpd 2/Cpd 1 at 62 g a.i./ha
[26] = 30 DAA, Cpd 2/Cpd 1 at 125 g a.i./ha
[27] = 44 DAA, Cpd 2/Cpd 1 at 62 g a.i./ha
[28] = 44 DAA, Cpd 2/Cpd 1 at 125 g a.i./ha
[29] = 62 DAA, Cpd 2/Cpd 1 at 62 g a.i./ha
[30] = 62 DAA, Cpd 2/Cpd 1 at 125 g a.i./ha
[31] = 91 DAA, Cpd 2/Cpd 1 at 62 g a.i./ha
[32] = 91 DAA, Cpd 2/Cpd 1 at 125 g a.i./ha
[33] = 30 DAA, Cpd 2/Cpd 1 at 62 g a.i./ha, alone or + atrazine 1500 or metolachlor 2500
[34] = 30 DAA, Cpd 2/Cpd 1 at 125 g a.i./ha, alone or + atrazine 1500 or metolachlor 2500
[35] = 44 DAA, Cpd 2/Cpd 1 at 62 g a.i./ha, alone or + atrazine 1500 or metolachlor 2500
[36] = 44 DAA, Cpd 2/Cpd 1 at 125 g a.i./ha, alone or + atrazine 1500 or metolachlor 2500
[37] = 62 DAA, 62 g a.i./ha, scale 0 to 100
[38] = 62 DAA, 125 g a.i./ha, scale 0 to 100

## COC(=O)c1nc(C2CC2)nc(N)c1Cl [Compound 2, methyl 6-amino-5-chloro-2-cyclopropyl-4-pyrimidinecarboxylate]
[1]; 28 DAA, g a.i./ha: Cpd 2 50, S-Metolachlor 1870
  CHEAL Obs: 0
[1]; 28 DAA, g a.i./ha: Cpd 2 100, Atrazine 1680, S-Metolachlor 1870
  CHEAL Obs: 7
[1]; 28 DAA, g a.i./ha: Cpd 2 150, S-Metolachlor 1870
  CHEAL Obs: 7
[1]; 56 DAA, g a.i./ha: Cpd 2 50, S-Metolachlor 1870
  CHEAL Obs: 7
[1]; 56 DAA, g a.i./ha: Cpd 2 100, Atrazine 1680, S-Metolachlor 1870
  CHEAL Obs: 55
[1]; 56 DAA, g a.i./ha: Cpd 2 150, S-Metolachlor 1870
  CHEAL Obs: 100
[2]; [16]
  SETLU Obs: 0
[2]; [17]
  SETLU Obs: 0
[2]; [18]
  SETLU Obs: 0
[3]; [16]
  THLAR Obs: 0
[3]; [17]
  THLAR Obs: 0
[3]; [18]
  THLAR Obs: 7
[4]; 16 days after application
  ZEAMD Obs: 0%
[4]; 31 days after application
  ZEAMD Obs: 0%
[5]; [19]
  AMBEL Obs: 85%
[5]; [20]
  AMBEL Obs: 95%
[5]; [21]
  AMBEL Obs: 83%
[5]; [22]
  AMBEL Obs: 99%
[6]; [19]
  DIGSA Obs: 0%
[6]; [20]
  DIGSA Obs: 0%
[6]; [21]
  DIGSA Obs: 0%
[6]; [22]
  DIGSA Obs: 2%
[7]; [19]
  SETFA Obs: 0%
[7]; [20]
  SETFA Obs: 0%
[7]; [21]
  SETFA Obs: 0%
[7]; [22]
  SETFA Obs: 2%
[8]; [19]
  THLAR Obs: 37%
[8]; [20]
  THLAR Obs: 42%
[8]; [21]
  THLAR Obs: 0%
[8]; [22]
  THLAR Obs: 2%
[9]; 14 DAA, 30 g a.i./ha
  ABUTH Obs: 0%
[9]; 14 DAA, 60 g a.i./ha
  ABUTH Obs: 0%
[9]; 28 DAA, 30 g a.i./ha
  ABUTH Obs: 0%
[9]; 28 DAA, 60 g a.i./ha
  ABUTH Obs: 0%
[10]; 14 DAA, 30 g a.i./ha
  CHEAL Obs: 100%
[10]; 14 DAA, 60 g a.i./ha
  CHEAL Obs: 100%
[10]; 28 DAA, 30 g a.i./ha
  CHEAL Obs: 100%
[10]; 28 DAA, 60 g a.i./ha
  CHEAL Obs: 100%
[11]; [23]
  BIDPI Obs: 20
[11]; [24]
  BIDPI Obs: 60
[11]; [25]
  BIDPI Obs: 20
[11]; [26]
  BIDPI Obs: 40
[11]; [27]
  BIDPI Obs: 20
[11]; [28]
  BIDPI Obs: 60
[11]; [29]
  BIDPI Obs: 0
[11]; [30]
  BIDPI Obs: 40
[11]; [31]
  BIDPI Obs: 0
[11]; [32]
  BIDPI Obs: 40
[12]; [23]
  BRAPL Obs: 40
[12]; [24]
  BRAPL Obs: 70
[12]; [25]
  BRAPL Obs: 0
[12]; [26]
  BRAPL Obs: 75
[12]; [27]
  BRAPL Obs: 0
[12]; [28]
  BRAPL Obs: 60
[12]; [29]
  BRAPL Obs: 0
[12]; [30]
  BRAPL Obs: 0
[12]; [31]
  BRAPL Obs: 0
[12]; [32]
  BRAPL Obs: 0
[13]; [23]
  DIGHO Obs: 0
[13]; [24]
  DIGHO Obs: 40
[13]; [25]
  DIGHO Obs: 0
[13]; [26]
  DIGHO Obs: 40
[13]; [27]
  DIGHO Obs: 0
[13]; [28]
  DIGHO Obs: 0
[13]; [29]
  DIGHO Obs: 0
[13]; [30]
  DIGHO Obs: 0
[13]; [31]
  DIGHO Obs: 0
[13]; [32]
  DIGHO Obs: 0
[14]; [33]
  ELEIN Obs: 0
[14]; [34]
  ELEIN Obs: 20
[14]; [35]
  ELEIN Obs: 0
[14]; [36]
  ELEIN Obs: 0
[14]; [37]
  ELEIN Obs: 0
[14]; [38]
  ELEIN Obs: 0
[15]; 16 DAA, Cpd 2/Cpd 1 at 62 g a.i./ha, alone or + atrazine 1500 or metolachlor 2500
  SIDRH Obs: 20
[15]; 16 DAA, Cpd 2/Cpd 1 at 125 g a.i./ha, alone or + atrazine 1500 or metolachlor 2500
  SIDRH Obs: 40
[15]; [33]
  SIDRH Obs: 40
[15]; [34]
  SIDRH Obs: 70
[15]; [35]
  SIDRH Obs: 40
[15]; [36]
  SIDRH Obs: 75
[15]; [37]
  SIDRH Obs: 0
[15]; [38]
  SIDRH Obs: 40
[15]; 91 DAA, 62 g a.i./ha, scale 0 to 100
  SIDRH Obs: 0
[15]; 91 DAA, 125 g a.i./ha, scale 0 to 100
  SIDRH Obs: 40
